“Also recorded” adds a separate entry of the source.
Columns and labels:
AsPC1 cells [1] = assay: In vitro uptake and specificity of [123I]CC1; assay type: cell-based; conditions: for uptake of [123I]CC1 on addition of cold blocker: AsPC1, blocker 100 μM, 45 min before tracer
Protocol: (§1) AsPC1 (1×10^5 cells/well), PSN1 cells (7.5×10^4 cells/well) or U87MG (1×10^5 cells/well) were seeded separately in 24-well plates containing growth medium and allowed to adhere for at least 20 h. Cells were washed and exposed to cold, unlabelled PARP inhibitors (100 μM, in a total of 270 μL growth medium) for 45 min at 37° C. […] Cell culture medium was removed, and cells washed with PBS. Cells were lysed using RIPA buffer ([…] Tris pH 8.0, 1% NP40, 0.5% sodium deoxycholate, 0.1% sodium dodecyl sulphate, and 150 mM sodium chloride) for 15 min at room temperature, and the amount of ^123I in cell lysates was measured using an automated gamma counter (PerkinElmer). […] The amount of ^123I in cell lysates was measured as above.
(§2) AsPC1 (1×10^5 cells/well), PSN1 (7.5×10^4 cells/well) or U87MG (1×10^5 cells/well) were seeded as described in part A hereinbefore. CAPAN-1 cells (7.5×10^4 cells/well) were seeded following the same protocol described in part A hereinbefore.

PSN1 cells [2] = assay: In vitro uptake and specificity of [123I]CC1; assay type: cell-based; conditions: for uptake of [123I]CC1 on addition of cold blocker: PSN1, blocker 100 μM, 45 min before tracer
Protocol: as §1, §2

U87MG cells [3] = assay: In vitro uptake and specificity of [123I]CC1; assay type: cell-based, Human; conditions: for uptake of [123I]CC1 on addition of cold blocker: blocker 100 μM, 45 min before tracer
Protocol: as §1, §2

PSN1 cells [4] = assay: Colony formation assay; assay type: cell-based; conditions: for effect on clonogenic survival: PSN1, cold compounds at amounts equivalent to [123I]CC1
Protocol: (§3) Separate aliquots of cells were irradiated (0-10 Gy, using a ^137Cs irradiator, 0.8 Gy/min). Cells were then washed, a fraction of which was then transferred to 6-well plates containing 2 mL of growth medium, and colony formation was measured two weeks after treatment. Colony numbers were normalized to the number of cells transferred to the plates to obtain plating efficiency, which was in turn normalized to that of untreated cells.
(§4) Following the protocol outlined in part A hereinbefore, colony formation assays were conducted on aliquots of PSN1, U87MG and MDA-MB-231 cells.

U87MG cells [5] = assay: Colony formation assay; assay type: cell-based, Human; conditions: for effect on clonogenic survival: cold compounds at amounts equivalent to [123I]CC1
Protocol: as §3, §4

PARP6 = PARP6 (Homo sapiens, UniProt Q2NL67); assay: PARP family enzymatic activity screening at 10 nM (BPS assay kits); conditions: lesser degree than olaparib, rucaparib and other established PARP inhibitors
PARP6, sequence (Q2NL67 whole entry): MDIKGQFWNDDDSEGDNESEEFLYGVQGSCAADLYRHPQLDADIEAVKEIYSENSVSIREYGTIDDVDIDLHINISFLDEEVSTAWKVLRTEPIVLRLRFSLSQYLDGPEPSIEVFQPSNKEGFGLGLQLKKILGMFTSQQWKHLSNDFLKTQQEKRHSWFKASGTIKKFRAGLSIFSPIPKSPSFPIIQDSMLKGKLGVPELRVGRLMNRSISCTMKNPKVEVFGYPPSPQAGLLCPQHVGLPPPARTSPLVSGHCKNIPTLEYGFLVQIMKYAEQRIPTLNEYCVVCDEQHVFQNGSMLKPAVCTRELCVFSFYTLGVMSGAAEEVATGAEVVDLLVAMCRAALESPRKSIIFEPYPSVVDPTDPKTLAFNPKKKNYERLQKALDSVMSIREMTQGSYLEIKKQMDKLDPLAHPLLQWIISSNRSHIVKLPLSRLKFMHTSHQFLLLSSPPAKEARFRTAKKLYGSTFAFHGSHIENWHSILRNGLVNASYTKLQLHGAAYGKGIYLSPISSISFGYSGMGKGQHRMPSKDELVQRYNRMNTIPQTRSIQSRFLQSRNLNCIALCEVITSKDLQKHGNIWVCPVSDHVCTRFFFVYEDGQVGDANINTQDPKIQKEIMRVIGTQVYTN

PSN1 xenografts [6] = assay: Biodistribution of [123I]CC1 in xenograft-bearing mice; assay type: in vivo; conditions: for tumour uptake: 1 h after i.v. 3 MBq
Protocol: PSN1 cells were harvested using trypsin, washed twice with PBS, and reconstituted in PBS: Matrigel® Matrix High Concentration (1:1). Cell suspensions (PSN1: 2×10^6 […]) were injected subcutaneously in the front right flank of the mice, and allowed to grow to a size of approximately 200 mm^3.
To evaluate the specificity of tumour uptake, an excess of unlabelled rucaparib (0.5 mg) was co-administered as blocking agent. Either after 60 or 120 min after radiolabelled compound injection, animals were euthanised. Selected organs, tissues and blood were removed, and the percentage of the injected dose per gram of tissue (% ID/g) was determined, using a HIDEX automated gammacounter.
(§5) Following the protocol described in part A hereinbefore, PSN1, U87MG, or MDA-MB-231 cells were harvested using trypsin, washed twice with PBS, and reconstituted in PBS: Matrigel® Matrix High Concentration (1:1). Cell suspensions were injected subcutaneously in the hind right flank and allowed to form tumours. […] To evaluate the specificity of tumour uptake, an excess of unlabelled rucaparib (0.5 mg) was co-administered as a blocking agent in some animals. Either 60 or 120 min after radiolabelled compound injection, animals were euthanised (n=3 per group). Selected organs, tissues and blood were removed, and the percentage of the injected activity per gram of tissue (% IA/g) was determined, using a HIDEX automated gammacounter.

AsPC1 cells [7] = assay: Flow cytometry of nuclear protein expression post [123I]CC1 treatment; assay type: cell-based; conditions: 50 kBq
Protocol: (§6) AsPC1, PSN1 or U87MG (1×10^6 cells/well in 2 mL growth medium) were seeded in 6-well plates and allowed to adhere for at least 20 h. […] Cells were harvested using trypsin-EDTA solution and washed with FACS buffer (PBS, 2% FBS, 1 mM EDTA, 0.1% NaN3) and centrifuged at 500×g for 5 min. Immunostaining was performed using the Foxp3/transcription factor staining buffer set (eBioscience™, USA). Intracellular staining was conducted in permeabilization buffer for 30 min at 4° C. in the dark using the following antibodies separately: AF488-conjugated anti-PARP-1 (1:100; sc-80070), AF594-conjugated anti-PARP-2 (1:100; sc-393310) and AF488-conjugated anti-PARP-3 (1:100; sc-390771) from Santa Cruz Biotechnology Inc. (USA), AF488-conjugated anti-IMPDH2 (1:500; ab-200770) from Abcam plc. (UK), yH2AX (1:1000; JBW301 Merck-Millipore). Fixable viability dye ef780 (1:4000; eBioscience™; 65-0865-14) was used for live/dead discrimination. Fixation of immunostained cells was performed for 15 min at RT. Flow cytometry was conducted using a CytoFLEX flow cytometer (Beckman Coulter, USA), with appropriate laser and filters, positive and negative controls. Data were analyzed using FlowJo™ (Tree Star Inc., BD Biosciences, USA).
(§7) Quantification of AsPC1, PSN1 or U87MG cells was conducted following the protocol outlined in part A hereinbefore. Relative expression of PARP1 and 2 was measured using flow cytometry. γH2AX expression, as a measure for DNA double strand break damage, was assessed in a similar manner.

PSN1 cells [8] = assay: as above; assay type: cell-based; conditions: PSN1, 24 h after 1-hour exposure, 50 kBq
Protocol: as §6, §7

U87MG cells [9] = assay: as above; assay type: cell-based, Human; conditions: 24 h after 1-hour exposure, 50 kBq
Protocol: as §6, §7

MDA-MB-231 xenografts [10] = assay: Biodistribution of [123I]CC1 in xenograft-bearing mice; assay type: in vivo; conditions: 2 h after i.v. 3 MBq
Protocol: as §5

U87MG xenografts [11] = assay: as above; assay type: in vivo; conditions: 2 h after i.v. 3 MBq
Protocol: as §5

[12] = Blood clearance by VOI analysis of dynamic imaging; assay type: in vivo; conditions: PSN1 xenograft-bearing mice, i.v. 3 MBq; CI95 1.64-2.09 min
Protocol: Images were analysed using VOI-based analysis, using PMOD.
In a selected number of animals (n=3), animals were anaesthetised using 2% isoflurane, and dynamic SPECT/CT imaging was performed over 1 h, using a MILabs VECTor4 camera, equipped with an ultra-high-resolution rat/mouse collimator (1.8 mm), followed by a cone-beam CT scan (55 kV, 0.19 mA) for anatomical reference and attenuation correction. Anesthesia was maintained using 2.5% isoflurane throughout the duration of image acquisition. SPECT images were reconstructed using U-SPECT-Rec3.22 software (MILabs, Utrecht, The Netherlands), applying a pixel-based algorithm, ordered subset expectation maximisation (OSEM) with 4 subsets, 4 iterations and 0.6 mm voxel size for lodine-123 (energy window settings 141.3-172.7 keV). Reconstructed SPECT and CT images were viewed and analyzed using PMOD v.3.37 (PMOD Technologies, Zurich, Switzerland).

PSN1 xenografts [13] = assay: In vivo therapy study; conditions: single i.v. 3 MBq
Protocol: […]. Mice and tumour sizes were monitored daily. Study endpoint was determined based humane endpoints, including a tumour size >1200 mm^3, or weight loss >15%.
[…]. Mice were monitored daily. Tumour sizes were determined by calliper. Study endpoints were based on humane endpoints, including a tumour size >1000 mm^3, or weight loss >15%.

MDA-MB-231 xenografts [14] = assay: In vivo therapy study; parameters: species or system mice; conditions: single i.v. 3 MBq
Protocol: (§8) Mice were monitored daily. Tumour sizes were determined by calliper. Study endpoints were based on humane endpoints, including a tumour size >1000 mm^3, or weight loss >15%.

U87MG xenografts [15] = assay: In vivo therapy study; parameters: species or system mice; conditions: single i.v. 3 MBq
Protocol: as §8

[16] = Toxicology: H&E staining of normal tissues; assay type: in vivo, C57/Bl6 mice; conditions: 3 MBq i.v.
Source text: Liver, spleen, kidneys and intestines were investigated by an experienced veterinary pathologist and compared to age-matched non-treated control animals.
Tissues were further stained for γH2AX to investigate DNA double strand break damage, and livers were additionally stained for PAS, as a marker for glycogen storage.

[17] = AsPC1, 24 h after 1-hour exposure

## O=c1c(-c2ccc(O)cc2)coc2cc(O[C@@H]3O[C@H](CO)[C@@H](O)[C@H](O)[C@H]3O)ccc12 [daidzin, reference compound]
AsPC1 cells [1]
  uptake of [123I]CC1 on addition of cold blocker: reduced
PSN1 cells [2]
  uptake of [123I]CC1 on addition of cold blocker: reduced
U87MG cells [3]
  uptake of [123I]CC1 on addition of cold blocker: reduced

## O=C(c1cc(Cc2n[nH]c(=O)c3ccccc23)ccc1[123I])N1CCN(C(=O)C2CC2)CC1 [CC1]
PSN1 cells [4]
  effect on clonogenic survival: no effect
U87MG cells [5]
  effect on clonogenic survival: no effect
PARP6
  inhibition of PARP6 catalytic activity by a single dose: able to inhibit

## CNCc1ccc(-c2[nH]c3cc(F)cc4c3c2CCNC4=O)cc1 [rucaparib, reference compound]
PSN1 xenografts [6]; PSN1 xenografts, 0.5 mg blocker, 2 h, P<0.05
  tumour uptake of [123I]CC1 on co-administration of excess blocker: significantly reduced tumour uptake

## O=C(c1cc(Cc2n[nH]c(=O)c3ccccc23)ccc1F)N1CCN(C(=O)C2CC2)CC1 [olaparib, reference compound]
PSN1 cells [4]
  effect on clonogenic survival: no effect
U87MG cells [5]
  effect on clonogenic survival: no effect

## COc1c(C)c2c(c(O)c1C/C=C(\C)CCC(=O)OCCN1CCOCC1)C(=O)OC2 [m.mofetil, Mycophenolate mofetil, reference compound]
AsPC1 cells [1]
  uptake of [123I]CC1 on addition of cold blocker: reduced
PSN1 cells [2]
  uptake of [123I]CC1 on addition of cold blocker: reduced
U87MG cells [3]
  uptake of [123I]CC1 on addition of cold blocker: reduced

## O=C(c1cc(Cc2n[nH]c(=O)c3ccccc23)ccc1[123I])N1CCN(C(=O)C2CC2)CC1 [[^123I]CC1]
AsPC1 cells [1]; AsPC1, 37° C.
  time at which cell uptake plateaus: 1 h
AsPC1 cells [1]; AsPC1, Part B
  cell uptake: around 0.3 fmol/cell
PSN1 cells [2]; PSN1, 37° C.
  time at which cell uptake plateaus: 1 h
PSN1 cells [2]; PSN1, Part B
  cell uptake: around 0.3 fmol/cell
U87MG cells [3]; 37° C.
  time at which cell uptake plateaus: 1 h
U87MG cells [3]; Part B
  cell uptake: around 0.3 fmol/cell
PSN1 cells [4]; PSN1, 60 min exposure
  clonogenic survival IC50: 1 kBq/mL
PSN1 cells [4]
  effect on clonogenic survival: far less pronounced
U87MG cells [5]; 1 h exposure
  amount from which clonogenic survival is significantly reduced: ≥ 10 Bq
U87MG cells [5]; in 200 μl, 60 min exposure
  clonogenic survival IC50: 631±35 Bq
AsPC1 cells [7]; [17]
  PARP1 expression: increased expression
  PARP2 expression: increased expression
AsPC1 cells [7]; AsPC1, 24 h after exposure
  γH2AX expression (DNA double strand breaks): increased significantly
PSN1 cells [8]
  PARP1 expression: increased expression
  PARP2 expression: increased expression
  γH2AX expression (DNA double strand breaks): increased significantly; also recorded: increased markedly
U87MG cells [9]
  PARP1 expression: increased expression
  PARP2 expression: increased expression
  γH2AX expression (DNA double strand breaks): increased significantly; also recorded: increased markedly
PSN1 xenografts [6]; PSN1 xenograft-bearing mice, 3 MBq, 20 GBq/μmol
  clearance pattern (high uptake in liver and intestines): hepatobiliary clearance pattern
PSN1 xenografts [6]; PSN-1 xenografts, Part A
  tumour uptake: 0.9±0.06 % ID/g
PSN1 xenografts [6]; PSN-1 xenografts, Part B
  tumour uptake: 0.9±0.06 % IA/g
PSN1 xenografts [6]; PSN-1 xenografts, 24 h after injection
  amount remaining in tumour: 0.033±0.017 % IA/g
MDA-MB-231 xenografts [10]
  tumour uptake: 0.19±0.01 % IA/g
U87MG xenografts [11]
  tumour uptake: 0.46±0.01 % IA/g
[12]
  blood clearance, weighed half-life: 1.86 min
PSN1 xenografts [13]; PSN1 xenografts, vs cold unlabelled CC1, p=0.04
  tumour growth: significant inhibition of tumour growth
PSN1 xenografts [13]
  gross toxicity (weight loss of the mice): without signs of gross toxicity
MDA-MB-231 xenografts [14]
  tumour growth response: not affected in their growth
U87MG xenografts [15]
  tumour growth response: responded less than PSN-1 xenografts
[16]
  shrunken (pyknotic) hepatocytes in liver: 0.1-0.2 per field
[16]; 24 h and 28 days
  histopathology, intestines: minimal proprial infiltration by lymphocytes and plasma cells
  histopathology, kidneys: no observable changes
  histopathology, liver: the one marked effect: diffuse cytoplasmic pallor/rarefaction
  histopathology, spleen: mild to moderate numbers of hemosiderophages
